This is an account of results in patent publication US9034856B2, “17-(1′propenyl)-17-3′-oxidoestra-4-en-3-one derivative, use thereof, and medicament containing said derivative” (Bayer Intellectual Property GmbH, priority 2007, dated 2015).

Read-outs that look alike come from different tables or passages of the source.

Assay [1] has as its target T1, mineralocorticoid receptor (Homo sapiens (Human), UniProt P08235). The assay can be described thus: Mineralocorticoid receptor binding test. To be noted: reference 3H-aldosterone, Hi5 cytosol. The source says:
2. Mineralocorticoid Receptor Binding Test:

The target in assay [2] is fusion protein from the PR-ligand-binding domain and a Gal4-transactivation domain (Homo sapiens, UniProt P06401). Kind of assay: Progestational action by transactivation test (CHO K1 reporter cells). The assay is classed as cell-based. The following applies: CHO K1 luciferase reporter, 16 hours incubation; for EC50: read-out: Progesterone receptor Agonism EC50; for Emax: read-out: Progesterone receptor Agonism efficacy. Here is the method:
4. Determination of Progestational Action by Means of Transactivation Tests:
The test compounds were added eight hours later, and the cells were incubated with the compounds for 16 hours. The tests were carried out in triplicate. At the end of incubation the medium containing the effector was removed and replaced with lysis buffer. After luciferase assay substrate (Promega, #E1501) had been added, the 96-well plates were then put in a microplate luminometer (Pherastar, BMG Labtech), and the luminescence was measured. The IC50 values were evaluated using software for calculating dose-effect relations.

Assay [3] deals with T2, androgen receptor (Homo sapiens (Human), UniProt P10275). The assay can be described thus: Androgenic/antiandrogenic action by transactivation test (PC3 reporter cells). Type of assay: cell-based. To be noted: for IC50: 0.05 nM R1881, read-out: Androgen receptor Antagonism IC50; for EC50: read-out: Androgen receptor Agonism EC50. Here is the method:
6. Determination of Androgenic/Antiandrogenic Action by Means of Transactivation Tests:
The androgenic/antiandrogenic action of the test substances was determined as for the transactivation tests described above.
The following modifications were made: In this case reporter cell lines were used (PC3 cells) that express the androgen receptor, and a reporter construct that contains luciferase under the control of a steroid hormone-responsive promoter.
For determination of the antiandrogenic efficacy, 0.05 nM R1881 was added to the cells, in order to achieve almost maximum stimulation of the reporter gene.

The target of assay [4] is T1, mineralocorticoid receptor. Kind of assay: Antimineralocorticoid action by transactivation test (MDCK reporter cells). To be noted: MDCK reporter cells, 1 nM aldosterone; for IC50: read-out: Mineralocorticoid receptor Antagonism IC50; for Emax: read-out: Mineralocorticoid receptor Antagonism efficacy. Type of assay: cell-based. Here is the method:
5. Determination of Antimineralocorticoid Action by Means of Transactivation Tests:
The antimineralocorticoid activity of the test substances was determined as for the transactivation tests described above.
The following modifications were undertaken: In this case reporter cell lines were used (MDCK cells) that express the human mineralocorticoid receptor, and transiently contain a reporter construct that contains luciferase under the control of a steroid hormone-responsive promoter.

For a further assay, the target named is progesterone receptor (Homo sapiens (Human), UniProt P06401). Kind of assay: Progesterone receptor binding test. To be noted: for Progesterone receptor (PR) Competition factor: CF 1 = affinity of progesterone, CF > 1 lower affinity; for IC50: displacement of 3H-progesterone, cytosol from PR-expressing Hi5 insect cells; for CF PR/CF MR: ratio of competition factors CF(PR) and CF(MR). Here is the method:
1. Progesterone Receptor Binding Test:
Using cytosol from progesterone receptor-expressing insect cells (Hi5), competitive binding to the progesterone receptor was determined from the ability to displace ^3H-progesterone as reference substance from the receptor.
In general terms: Loss of bound radioactivity is the signal in a displacement assay; it reports binding, not function.

In assay [5] the target is T2, androgen receptor. The assay can be described thus: Androgen receptor binding test. The following applies: reference 3H-testosterone, Hi5 cytosol; for IC50: read-out: Androgen receptor IC50.
Protocol: Androgen Receptor Binding Test:
The test was carried out as in 1., with the following modifications: cytosol from androgen receptor-expressing insect cells (Hi5) was used, and the reference substance was ^3H-testosterone.
Where [6] appears, read: 0.05 nM R1881, read-out: Androgen receptor Antagonism efficacy.
The mark [7] stands for this setting: read-out: Androgen receptor Agonism efficacy.

fusion protein from the PR-ligand-binding domain and a Gal4-transactivation domain, sequence (P06401 679-913): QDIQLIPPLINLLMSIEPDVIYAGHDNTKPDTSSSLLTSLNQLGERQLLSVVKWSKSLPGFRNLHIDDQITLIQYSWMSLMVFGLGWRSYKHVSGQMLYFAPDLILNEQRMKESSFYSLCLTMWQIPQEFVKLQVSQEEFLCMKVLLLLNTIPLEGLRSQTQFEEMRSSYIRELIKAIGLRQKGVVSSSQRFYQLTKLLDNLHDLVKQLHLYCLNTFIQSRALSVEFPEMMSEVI
progesterone receptor, sequence (P06401 whole entry, species assumed): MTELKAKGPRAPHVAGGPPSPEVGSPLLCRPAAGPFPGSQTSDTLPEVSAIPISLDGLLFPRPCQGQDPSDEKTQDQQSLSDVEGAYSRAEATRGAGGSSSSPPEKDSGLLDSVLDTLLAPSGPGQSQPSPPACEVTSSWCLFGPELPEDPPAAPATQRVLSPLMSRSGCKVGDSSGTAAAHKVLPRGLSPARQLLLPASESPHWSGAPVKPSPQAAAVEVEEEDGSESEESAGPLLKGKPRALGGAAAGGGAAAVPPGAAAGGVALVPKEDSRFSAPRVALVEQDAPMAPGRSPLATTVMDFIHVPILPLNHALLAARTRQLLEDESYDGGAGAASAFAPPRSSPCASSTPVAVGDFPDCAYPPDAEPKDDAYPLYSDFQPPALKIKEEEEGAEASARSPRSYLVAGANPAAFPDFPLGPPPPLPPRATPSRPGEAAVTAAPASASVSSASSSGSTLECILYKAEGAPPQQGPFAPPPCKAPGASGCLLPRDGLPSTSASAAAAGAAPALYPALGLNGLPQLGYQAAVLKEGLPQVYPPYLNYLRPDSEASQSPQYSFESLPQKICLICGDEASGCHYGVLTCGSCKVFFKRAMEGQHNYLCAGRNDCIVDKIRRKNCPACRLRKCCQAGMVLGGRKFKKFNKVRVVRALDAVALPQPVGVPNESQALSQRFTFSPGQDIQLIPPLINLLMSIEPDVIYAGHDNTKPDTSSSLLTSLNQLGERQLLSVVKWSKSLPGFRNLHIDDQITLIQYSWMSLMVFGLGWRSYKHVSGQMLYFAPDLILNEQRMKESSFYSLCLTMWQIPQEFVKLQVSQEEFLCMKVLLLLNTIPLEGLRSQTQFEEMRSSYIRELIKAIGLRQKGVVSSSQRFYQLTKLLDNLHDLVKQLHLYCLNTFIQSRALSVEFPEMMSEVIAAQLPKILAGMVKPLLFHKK
T1 sequence (P08235 whole entry): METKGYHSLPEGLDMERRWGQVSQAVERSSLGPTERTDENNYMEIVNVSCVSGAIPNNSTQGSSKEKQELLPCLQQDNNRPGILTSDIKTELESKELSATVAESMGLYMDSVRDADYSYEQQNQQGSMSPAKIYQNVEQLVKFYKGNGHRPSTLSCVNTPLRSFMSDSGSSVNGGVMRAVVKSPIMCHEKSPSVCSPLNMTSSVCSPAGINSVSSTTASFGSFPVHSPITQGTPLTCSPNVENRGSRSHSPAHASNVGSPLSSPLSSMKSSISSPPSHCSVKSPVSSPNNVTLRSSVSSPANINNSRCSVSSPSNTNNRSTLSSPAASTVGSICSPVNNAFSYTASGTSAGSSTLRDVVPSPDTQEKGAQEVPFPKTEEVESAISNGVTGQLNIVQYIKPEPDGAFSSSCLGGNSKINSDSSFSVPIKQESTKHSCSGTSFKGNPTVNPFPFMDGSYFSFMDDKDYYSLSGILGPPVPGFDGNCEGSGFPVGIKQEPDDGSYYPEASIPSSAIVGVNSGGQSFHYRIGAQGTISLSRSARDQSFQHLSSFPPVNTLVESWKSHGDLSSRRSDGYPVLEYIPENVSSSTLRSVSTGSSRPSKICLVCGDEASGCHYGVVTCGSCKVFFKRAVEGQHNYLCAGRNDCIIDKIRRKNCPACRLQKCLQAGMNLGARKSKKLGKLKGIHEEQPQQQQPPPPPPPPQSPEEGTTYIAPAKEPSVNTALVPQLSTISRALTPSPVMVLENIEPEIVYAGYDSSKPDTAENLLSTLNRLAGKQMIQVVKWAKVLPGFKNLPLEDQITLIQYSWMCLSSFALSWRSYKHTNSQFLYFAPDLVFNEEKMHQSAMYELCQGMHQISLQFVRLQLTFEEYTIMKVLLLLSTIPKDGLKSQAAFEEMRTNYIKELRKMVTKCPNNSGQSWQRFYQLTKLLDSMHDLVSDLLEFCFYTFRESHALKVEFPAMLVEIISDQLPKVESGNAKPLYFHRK
T2 sequence (P10275 whole entry, species assumed): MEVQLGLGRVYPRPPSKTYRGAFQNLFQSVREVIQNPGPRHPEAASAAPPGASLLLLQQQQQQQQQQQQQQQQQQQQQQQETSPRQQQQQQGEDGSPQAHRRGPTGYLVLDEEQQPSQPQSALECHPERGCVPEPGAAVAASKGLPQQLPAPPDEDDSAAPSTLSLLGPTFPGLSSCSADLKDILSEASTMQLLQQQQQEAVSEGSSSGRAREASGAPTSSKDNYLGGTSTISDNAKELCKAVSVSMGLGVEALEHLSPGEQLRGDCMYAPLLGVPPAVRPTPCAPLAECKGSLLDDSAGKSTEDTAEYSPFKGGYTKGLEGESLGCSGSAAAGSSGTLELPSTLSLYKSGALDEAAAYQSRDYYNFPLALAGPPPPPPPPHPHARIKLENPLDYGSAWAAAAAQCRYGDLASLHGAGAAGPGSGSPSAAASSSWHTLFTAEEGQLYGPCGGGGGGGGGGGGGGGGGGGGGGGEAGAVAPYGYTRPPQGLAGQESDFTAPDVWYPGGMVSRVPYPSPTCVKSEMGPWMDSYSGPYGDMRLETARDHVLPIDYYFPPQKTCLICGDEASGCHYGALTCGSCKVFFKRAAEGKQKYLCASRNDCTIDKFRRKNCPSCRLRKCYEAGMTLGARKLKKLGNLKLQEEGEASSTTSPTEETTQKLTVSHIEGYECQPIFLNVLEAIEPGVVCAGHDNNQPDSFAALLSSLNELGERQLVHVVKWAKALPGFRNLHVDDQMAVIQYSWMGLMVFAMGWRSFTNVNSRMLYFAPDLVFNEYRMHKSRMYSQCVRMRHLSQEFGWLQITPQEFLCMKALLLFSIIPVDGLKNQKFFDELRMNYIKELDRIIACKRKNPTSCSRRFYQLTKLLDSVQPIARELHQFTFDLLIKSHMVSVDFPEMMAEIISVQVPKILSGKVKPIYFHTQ

`CC[C@]12CC[C@H]3[C@@H](C[C@@H](CO)C4=CC(=O)CC[C@@H]43)[C@@H]1CC[C@@]21C=CCO1` [Example 13, 6β-Hydroxymethylene-18-methyl-17α-(1′-propenyl)-17β-3′-oxidoestra-4-en-3-one]: the “Mineralocorticoid receptor (MR) Competition factor” value in assay [1] is 2.2. For the same molecule, the 50% effective concentration (EC50) (in assay [2]; at androgen receptor [3]) was 1 µM throughout. The Emax came out at 5% in assay [2], 48.1% on androgen receptor [3] (setting [6]), 5% on androgen receptor [3] (setting [7]) and 98.8% in assay [4]. The IC50 at androgen receptor [3] stood at 0.14 µM; in assay [4], 0.11 µM; at progesterone receptor, 2.1 µM; on androgen receptor [5] it was 1 µM. Further, on progesterone receptor, the “Progesterone receptor (PR) Competition factor” value (“Progesterone receptor” for short) is 88.59. For the same molecule, the “CF PR/CF MR” value on progesterone receptor amounted to 40.27. Moreover, the “Androgen receptor Competition factor” value on androgen receptor [5] was found to be 1000.0.

As for `CC[C@]12CC[C@H]3[C@@H]([C@H](C)CC4=CC(=O)CC[C@@H]43)[C@@H]1CC[C@@]21C=CCO1` [Example 9, 7α,18-Dimethyl-17α-(1′-propenyl)-17β-3′-oxidoestra-4-en-3-one], the “Mineralocorticoid receptor (MR) Competition factor” value in assay [1] is recorded as 1.6. Further, the EC50 in assay [2] stood at 0.0071 µM; on androgen receptor [3] it was 0.003 µM. The Emax in assay [2] turned out to be 55.9%; on androgen receptor [3] (setting [6]), 5%; at androgen receptor [3] (setting [7]) it was 77.9%; in assay [4], 105%. Moreover, the 50% inhibitory concentration (IC50) is 1 µM on androgen receptor [3], 0.038 µM in assay [4], 0.077 µM on progesterone receptor and 0.081 µM at androgen receptor [5]. In addition, the “Progesterone receptor” value on progesterone receptor came out at 3.26. The “CF PR/CF MR” value on progesterone receptor is 2.04. For the same molecule, the “Androgen receptor Competition factor” value at androgen receptor [5] was determined as 3.0.

As for `CC[C@]12CC[C@H]3[C@@H](CCC4=CC(=O)CC[C@@H]43)[C@@H]1CC[C@@]21C=CCO1` (stereo in doubt) [Example 7, 18-Methyl-17α-(1′-propenyl)-17β-3′-oxidoestra-4-en-3-one], the “Mineralocorticoid receptor (MR) Competition factor” value in assay [1] turned out to be 1.6. For the same molecule, on androgen receptor [3], the IC50 turned out to be 0.16 µM and the half-maximal effective concentration (EC50) is 0.0037 µM. At androgen receptor [3] (setting [6]), the Emax is 25.4%. Moreover, the Emax at androgen receptor [3] (setting [7]) turned out to be 78.3%. Moreover, in assay [4], the half-inhibitory concentration (IC50) stood at 0.005 µM and the Emax stood at 87.8%. Also, on progesterone receptor, the “Progesterone receptor” value stood at 0.19, the IC50 is 0.0053 µM and the “CF PR/CF MR” value is recorded as 0.12. The “Androgen receptor Competition factor” value on androgen receptor [5] amounted to 0.5.

As for `C=C[C@@H]1CC2=CC(=O)CC[C@@H]2[C@H]2CC[C@@]3(CC)[C@@H](CC[C@@]34C=CCO4)[C@@H]21` [Example 11, 7α-Vinyl-18-methyl-17α-(1′-propenyl)-17β-3′-oxidoestra-4-en-3-one], the “Mineralocorticoid receptor (MR) Competition factor” value in assay [1] stood at 1.3. For the same molecule, the EC50 in assay [2] stood at 0.1 µM; on androgen receptor [3] it was 0.0053 µM. Further, the Emax in assay [2] was determined as 29.5%; at androgen receptor [3] (setting [6]), 5%; at androgen receptor [3] (setting [7]), 88.8%. Also, the results for the concentration for half-maximal inhibition (IC50) at androgen receptor [3], at progesterone receptor and on androgen receptor [5] were 1 µM, 0.17 µM and 1.3 µM, respectively. In assay [4] (cell spans IC50 and efficacy), the “Mineralocorticoid receptor Antagonism (result in words)” value is recorded as “Partial agonist”. The “Progesterone receptor” value on progesterone receptor was determined as 6.24. Also, the “CF PR/CF MR” value on progesterone receptor is 4.80. Further, the “Androgen receptor Competition factor” value at androgen receptor [5] was 4.7.

On to `C=C[C@@H]1CC2=CC(=O)CC[C@@H]2[C@H]2CC[C@@]3(C)[C@@H](CC[C@@]34C=CCO4)[C@@H]21` [Example 5, 17α-(1′-Propenyl)-7α-vinyl-17β-3′-oxidoestra-4-en-3-one], for which the “Mineralocorticoid receptor (MR) Competition factor” value in assay [1] is on record as 2.6. The EC50 in assay [2] came out at 0.0012 µM; at androgen receptor [3], 0.0037 µM. Further, the Emax in assay [2] came out at 21.9%; on androgen receptor [3] (setting [6]), 5%; on androgen receptor [3] (setting [7]), 86.8%; in assay [4] it was 121%. Also, the results for the IC50 (on androgen receptor [3]; in assay [4]; on androgen receptor [5]) were 1 µM, 0.057 µM and 0.053 µM, respectively. The “Progesterone receptor” value on progesterone receptor amounted to 2.46. Besides, at progesterone receptor, the “CF PR/CF MR” value is 0.95. Besides, the “Androgen receptor Competition factor” value on androgen receptor [5] is on record as 2.2.

With `CC[C@]12CC[C@H]3[C@@H](C=CC4=CC(=O)CC[C@@H]43)[C@@H]1CC[C@@]21C=CCO1` (stereo in doubt) [Example 8, 18-Methyl-17α-(1′-propenyl)-17β-3′-oxidoestra-4,6-dien-3-one], the “Mineralocorticoid receptor (MR) Competition factor” value in assay [1] is listed as 1.2. The concentration for a half-maximal effect (EC50) in assay [2] came to 0.0011 µM. Also, the Emax is 12.3% in assay [2], 5% at androgen receptor [3] (setting [6]), 62% at androgen receptor [3] (setting [7]) and 112% in assay [4]. Also, in assay [4], the IC50 was 0.066 µM. Besides, the “Progesterone receptor” value at progesterone receptor is given as 1.78.

Regarding `CC[C@@H]1CC2=CC(=O)CC[C@@H]2[C@H]2CC[C@@]3(CC)[C@@H](CC[C@@]34C=CCO4)[C@H]12` [Example 10, 7α-Ethyl-18-methyl-17α-(1′-propenyl)-17β-3′-oxidoestra-4-en-3-one], the “Mineralocorticoid receptor (MR) Competition factor” value in assay [1] was found to be 1.1. Further, the EC50 is 0.78 µM in assay [2] and 0.0094 µM on androgen receptor [3]. Further, the Emax in assay [2] turned out to be 26.4%; on androgen receptor [3] (setting [6]), 5%; on androgen receptor [3] (setting [7]), 70.4%; in assay [4] it was 39.2%. The 50% inhibitory concentration (IC50) on androgen receptor [3] stood at 1 µM; in assay [4], 0.85 µM; on progesterone receptor it was 0.17 µM; at androgen receptor [5] it was 0.11 µM. The “Progesterone receptor” value on progesterone receptor amounted to 7.03. Besides, the “CF PR/CF MR” value on progesterone receptor came out at 6.39. The “Androgen receptor Competition factor” value at androgen receptor [5] is reported as 4.1.

`CC[C@@H]1CC2=CC(=O)CC[C@@H]2[C@H]2CC[C@@]3(C)[C@@H](CC[C@@]34C=CCO4)[C@H]12` [Example 4, 7α-Ethyl-17α-(1′-propenyl)-17β-3′-oxidoestra-4-en-3-one]: in assay [1], the “Mineralocorticoid receptor (MR) Competition factor” value is recorded as 4.1. For the same molecule, the EC50 in assay [2] came to 0.067 µM; on androgen receptor [3] it was 0.0073 µM. For the same molecule, the Emax in assay [2] stood at 65.1%; at androgen receptor [3] (setting [6]) it was 5%; at androgen receptor [3] (setting [7]), 62.3%; in assay [4], 82.2%. For the same molecule, the IC50 on androgen receptor [3] was determined as 1 µM; in assay [4], 0.31 µM; at progesterone receptor it was 0.13 µM; on androgen receptor [5], 0.064 µM. Further, the “Progesterone receptor” value at progesterone receptor came out at 11.75. Also, the “CF PR/CF MR” value on progesterone receptor is recorded as 2.87. Also, the “Androgen receptor Competition factor” value at androgen receptor [5] was 2.9.

By EC50 is commonly meant the concentration that produces a half-maximal response. The IC50 is the concentration needed to halve the response being measured.
